# Target: T1, human leukocyte elastase (HLE) (Homo sapiens, UniProt P08246)
# T1 construct: CEREP (contract assay)
# T1 sequence (P08246 30-267): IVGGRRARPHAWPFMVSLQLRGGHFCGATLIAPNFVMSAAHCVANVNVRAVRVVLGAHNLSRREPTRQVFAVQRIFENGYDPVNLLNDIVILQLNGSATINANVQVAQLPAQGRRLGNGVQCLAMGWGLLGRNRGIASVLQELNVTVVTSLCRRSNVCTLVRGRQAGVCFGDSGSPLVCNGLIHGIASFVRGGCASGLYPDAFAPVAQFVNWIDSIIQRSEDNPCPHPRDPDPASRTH
# Assay: Human Elastase Assay test (CEREP catalog), photometry
# Format: biochemical
# Conditions: for inhibition at 1000 µM: compound at 1 mM, reference substrate MeOSAAPV-pNa at 0.1 mM, photometry, read-out: Elastase inhibition activity (conc 1 mM); for IC50: human elastase, read-out: IC50 (concentration that produces 50% inhibition of the human elastase activity)
# Protocol: The molecules have been evaluated in vitro on a Human Elastase Assay test, available in the CEREP catalog.
# The results are expressed as a percentage of activity versus a specific control (activity measured with compounds of the invention/control activity without the compound of the invention)×100.
# The control is the enzymatic activity of human leukocyte elastase (HLE) on a reference substrate (MeOSAAPV-pNa at 0.1 mM).
# The detection method used is photometry.
# This method is described in the literature: Adeyemi et al 1990, J. Pharm. Pharmacol. 42, 487-490.
# The concentration that produces 50% inhibition of the human elastase activity (IC50) was measured.
inhibition at 1000 µM [%],IC50 [mM],SMILES,effectiveness for inhibiting elastase activity compared with the compound of the prior art (comparison in words)
98,–,"CC(=O)N(c1cc(C(=O)O)cc(C(=O)O)c1)[C@H](C(=O)NCC(=O)O)C(C)C [Compound 3, N-ACETYL-N-(3,5-DICARBOXYPHENYL)VALYLGLYCINE]",–
35,5.6,CC(=O)N(c1cccc(C#N)c1)C(C(=O)NCC(=O)O)C(C)C (centres unmarked) [Compound 4],clearly more effective than the compound of the prior art
65,–,"COC(=O)c1cc(C(=O)OC)cc(N(C(C)=O)C(C(=O)NCC(=O)O)C(C)C)c1 (centres unmarked) [Compound 6, N-ACETYL-N-[3,5-BIS(METHOXYCARBOXY)PHENYL]VALYLGLYCINE]",–
98,–,"CC(=O)N(c1ccc(C(=O)O)c(C(=O)O)c1)[C@H](C(=O)NCC(=O)O)C(C)C [Compound 2, N-ACETYL-N-(3,4-DICARBOXYPHENYL)VALYLGLYCINE]",–
–,6.38,"CC(=O)N(c1cccc(C(F)(F)F)c1)C(C(=O)NCC(=O)O)C(C)C (centres unmarked) [Z, reference compound]",–
62,–,"CCOC(=O)c1cc(N(C(C)=O)[C@H](C(=O)NCC(=O)O)C(C)C)ccc1O [Compound 5, N-ACETYL-N-[3-(ETHOXYCARBONYL)-4-HYDROXYPHENYL]VALYLGLYCINE]",–
98,–,"CC(=O)N(c1ccc(C(=O)O)c(O)c1)[C@H](C(=O)NCC(=O)O)C(C)C [Compound 1, N-ACETYL-N-(4-CARBOXY-3-HYDROXYPHENYL)VALYLGLYCINE]",–
88,–,CC(=O)N(c1ccc(C(=O)O)cc1)C(C(=O)NCC(=O)O)C(C)C (centres unmarked) [Compound 8],–
62,–,"CC(=O)N(c1cccc(O)c1)[C@H](C(=O)NCC(=O)O)C(C)C [Compound 7, N-ACETYL-N-(3-HYDROXYPHENYL)VALYLGLYCINE]",–
